Test results from patent US10947243B2, “Heteroaryl SYK inhibitors” (Boehringer Ingelheim International GmbH, priority 2014, dated 2021).

How the values were obtained:
[1] = Human Liver Microsomal Stability Test; type: in vitro ADME; conditions: human liver microsomes; comparison compounds, Example numbers of WO 2013/014060
Protocol: The metabolic degradation for a specific SYK-inhibitor is performed at 37° C. with pooled human liver microsomes (human liver microsomes are commercially available as “BD UltraPool™” by Corning Life Sciences, Fogostraat 12, 1060 LJ Amsterdam, The Netherlands). The final incubation volume of 100 μl per time point contains TRIS buffer pH 7.6 at RT (0.1 M), magnesium chloride (5 mM), microsomal protein (1 mg/ml) and the test compound at a final concentration of 1 μM.
Following a short preincubation period at 37° C., the reaction is initiated by addition of beta-nicotinamide adenine dinucleotide phosphate in its reduced form (NADPH, 1 mM) and terminated by transfering an aliquot into solvent after different time points. Additionally, the NADPH-independent degradation is monitored in incubations without NADPH, terminated at the last time point.
The quenched (terminated) incubations are then pelleted by centrifugation (10000 g, 5 min).
An aliquot of the supernatant is assayed by LC-MS/MS for the remaining amount of parent compound. The half-life (t½ INVITRO) is determined by the slope of the semilogarithmic plot of the concentration-time profile.
The intrinsic clearance (CL_[…]) is calculated by considering the amount of protein in the incubation: CL_[…] [μl/min/mg protein]=(Ln 2/(t½INVITRO [min]*protein content [mg/ml]))*1000
The protein content [mg/ml] was determined with the “Bicinchoninic Acid Kit” of Sigma Aldrich (commercially available).
The upscaled intrinsic Clearance (CL_UP_INT) is calcuated by considering the liver weight [g liver/kg body weight] and the microsomal recovery [mg protein/g liver]: CL_UP_INT [ml/min/kg]=0.001*CL_[…]*liver weight*microsomal recovery • with microsomal recovery=45 mg protein/g liver • with liver weight=25.7 g liver/kg body weight
The percent hepatic blood flow (% Qh) is finally calculated by considering the human liver blood flow Q [ml/min/kg]: % Qh [%]=((Q*CL_UP_INT)/(Q+CL_UP_INT)/Q)*100 • with liver blood flow (Q)=20.7 ml/min/kg.

FLT3 = FLT3 (Homo sapiens (Human), UniProt P36888); experiment: FLT3 Kinase Test (Z'-LYTE); type: biochemical; conditions: comparison compounds, Example numbers of WO 2013/014060; read-out: IC50 in μM (FLT3-Inhibition)
Protocol: The activity of FLT3 is measured using the Z′-LYTE™ assay technology from Invitrogen (#PV3191)
The reaction is started by addition of 2.5 μl of the 4×ATP solution.
(§1) Positive controls are reaction mixtures containing no test compound; negative controls (blanks) are reaction mixtures containing no kinase. As a further control, the phosphopeptide solution is added to wells without kinase (=100% phosphorylation control).
The reaction is performed for 1 h at room temperature before 5 μl of the development solution is added. After a further incubation for 1 h at room temperature 5 μl of the stop reagent is added.
The output text file is evaluated in an “MS-Excel-VB-Makro” and “GraphPadPrism” (Version 5) (GraphPad Software Inc.) is used to calculate the results. Data for the inhibition of FLT3 are reported in M. data for the inhibition of the protease are reported in % CTL.

[2] = target: Recombinant human Syk (amino acids 342-635) (Homo sapiens (Human), UniProt P43405); experiment: Syk Kinase Test (Kinase Glo luminescence); type: biochemical; conditions: comparison compounds, Example numbers of WO 2013/014060; read-out: IC50 in μM (SYK-Inhibition)
Protocol: (§2) The output file of the reader is a csv file that contains the well number and measured relative light units (RLU). For data evaluation and calculation, the measurement of the negative control was set as 100% ctrl and the measurement of the positive control was set as 0% ctrl. Based on this values the % value for the measurement of each substance concentration was calculated using an Assay Explorer software (Accelrys). Normally, the % ctrl values calculated are between 0% and 100% values but may also occur outside these limits in individual cases based on variability or compound characteristics. The IC50 values were calculated from the % ctrl values using Assay Explorer software. Calculation: [y=(a−d)/(1+(x/c)^b)+d] a=low value, d=high value; x=conc M; c=IC50 M; b=hill; y=% ctrl.

[3] = target: Recombinant human Aurora B (amino acids 1-344) (Homo sapiens (Human), UniProt Q96GD4); experiment: Aurora B Kinase Test (ADP Glo luminescence); type: biochemical; conditions: comparison compounds, Example numbers of WO 2013/014060; read-out: IC50 in μM (AURB-Inhibition)
Protocol: The activity of the Aurora B kinase protein was determined using the ADP Glo® Luminescence Kinase test (Promega; V9103X).
Serial Dilution is done in 1:10 steps in 100% DMSO.
Then 20 μl Kinase detection mix (Detection Buffer #V913B Promega; Kinase Detection Substrate #V914B Promega) were added and incubated for 40 minutes at room temperature.
as §2, with “measured RLU.” for “measured relative light units (RLU).”, “as 0%” for “as 100%”, “as 100%” for “as 0%”, “Calculation: [y=(a−d)/(1+(x/c)^b)+d],” for “Calculation: [y=(a−d)/(1+(x/c)^b)+d]”

Human GSK3beta = Human GSK3beta (Homo sapiens (Human), UniProt P49841); experiment: GSK 3β Kinase-Test (Z'-LYTE); type: biochemical; conditions: comparison compounds, Example numbers of WO 2013/014060; read-out: IC50 in μM (GSK3beta-Inhibition)
Protocol: Human GSK3beta (expressed and prified from SF21 cells) is obtained from the University Dundee/Scotland (Dr. James Hastie—Dept. of Biochemistry) in 50 mM Tris (pH7.5); 150 mM NaCl; 0.1 mM EGTA, 270 mM Succrose, 0.1% B-mercaptoethanol, 1 mM benzamidine, 0.2 mM PMSF; sequence see below). The enzyme is diluted to 3.56 μM (168 μg/ml) in enzyme dilution buffer and 6 μl aliquots are stored at −80° C.
The activity of GSK3 kinase protein is measured using the Z′-LYTE™ assay technology from Invitrogen (# PV3324).
The assay is performed in 384 black plates from Corning (#3676) in a final volume of 10 μl by adding 5 μl of kinase peptide mix and 2.5 μl of compound dilution. The reaction is started by addition of 2.5 μl of the 4×ATP solution.
as §1, with “ATP.” for “kinase.”, “kinase and without ATP” for “kinase”, “control). The non inhibited kinase reaction will result in a phosphorylation corresponding to 20%-30% of the phosphorylation control.” for “control).”
The reaction is performed 1 h at room temperature. After 1 h 5 μl of the development solution is added. After a further incubation for 1 h at room temperature 5 μl of the stop reagent is added. Finally the plates are read on a Flex Station II 384 (Molecular Devices).
The output text file is evaluated in an “MS-Excel-VB-Makro” and “GraphPadPrism” (Version 5) (GraphPad Software Inc.) is used to calculate the results. Data for the inhibition of GSK3beta are reported in M. data for the inhibition of the protease are reported in % CTL.

Recombinant human Aurora B (amino acids 1-344), sequence (Q96GD4 whole entry, the tested form may be a part): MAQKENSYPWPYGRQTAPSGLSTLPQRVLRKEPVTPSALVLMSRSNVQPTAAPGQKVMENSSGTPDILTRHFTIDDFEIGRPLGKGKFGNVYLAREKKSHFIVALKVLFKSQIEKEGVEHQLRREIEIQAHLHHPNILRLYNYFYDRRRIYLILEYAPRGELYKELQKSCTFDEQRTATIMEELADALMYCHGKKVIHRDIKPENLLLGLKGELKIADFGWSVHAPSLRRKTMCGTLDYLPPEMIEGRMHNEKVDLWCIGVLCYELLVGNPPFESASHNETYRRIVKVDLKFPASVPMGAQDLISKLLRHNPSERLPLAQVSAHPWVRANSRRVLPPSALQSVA
Human GSK3beta, sequence (P49841 whole entry): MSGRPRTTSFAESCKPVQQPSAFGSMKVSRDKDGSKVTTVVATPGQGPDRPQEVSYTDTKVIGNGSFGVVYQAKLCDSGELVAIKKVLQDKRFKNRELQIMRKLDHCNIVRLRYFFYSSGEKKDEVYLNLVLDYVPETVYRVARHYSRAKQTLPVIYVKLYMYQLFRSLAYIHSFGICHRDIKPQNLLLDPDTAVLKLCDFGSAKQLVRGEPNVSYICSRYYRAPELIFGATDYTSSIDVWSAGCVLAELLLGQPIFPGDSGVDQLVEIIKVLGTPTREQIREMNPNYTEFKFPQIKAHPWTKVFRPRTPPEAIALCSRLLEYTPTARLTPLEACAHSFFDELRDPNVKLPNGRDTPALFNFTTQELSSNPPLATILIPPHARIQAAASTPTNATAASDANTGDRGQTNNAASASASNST
FLT3, sequence (P36888 564-958): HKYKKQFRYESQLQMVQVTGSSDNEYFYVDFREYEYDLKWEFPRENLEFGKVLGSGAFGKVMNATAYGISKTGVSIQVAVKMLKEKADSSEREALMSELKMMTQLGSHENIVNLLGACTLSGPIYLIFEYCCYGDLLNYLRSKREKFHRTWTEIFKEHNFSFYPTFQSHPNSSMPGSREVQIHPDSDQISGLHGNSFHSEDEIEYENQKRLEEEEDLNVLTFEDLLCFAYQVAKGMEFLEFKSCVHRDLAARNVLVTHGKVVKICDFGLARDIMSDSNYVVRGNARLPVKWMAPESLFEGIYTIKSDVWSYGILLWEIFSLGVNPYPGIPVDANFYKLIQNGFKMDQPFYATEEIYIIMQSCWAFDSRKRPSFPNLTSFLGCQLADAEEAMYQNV

| Structure (SMILES) | microsomal stability Cl [% Qh] [1] [% Qh] | IC50 (FLT3) [µM] | IC50 [2] [µM] | IC50 [3] [µM] | IC50 (Human GSK3beta) [µM] |
| --- | --- | --- | --- | --- | --- |
| C[C@@H](Oc1nc(-c2cc3nn(C)cc3c(O[C@H](C)[C@H]3CNC(=O)C3)n2)cc2nn(C)cc12)[C@@H]1CNC(=O)C1 [Example 11, (4S)-4-[(1R)-1-[2-methyl-6-[2-methyl-4-[(1R)-1-[(3R)-5-oxopyrrolidin-3-yl]ethoxy]-pyrazolo[4,3-c]pyridin-6-yl]pyrazolo[4,3-c]pyridin-4-yl]oxyethyl]pyrrolidin-2-one] | 24 | 0.738 | 0.002 | 0.752 | > 10 |
| Cc1c(-c2cc(O[C@H](C)[C@H]3CNC(=O)C3)c3cccnc3c2)cnn1C [compound 112] | <23 | 1.25 | 0.006 | 2.96 | > 10 |
| CC(C)n1cc(-c2cc(O[C@H](C)[C@H]3CNC(=O)C3)c3cccnc3c2)cn1 [compound 115] | <23 | 0.041 | 0.0002 | 0.021 | > 10 |
